One data set in a line: Carotenoid content in fish flesh of silver salmon by HPLC. Format: in vivo, Oncorhynchus kisutch. The conditions noted are these: Fermented product division, silver salmon fish flesh, 6 months. The procedure:
In the examples, the quantification of the carotenoid colorant was performed using high performance liquid chromatography (HPLC). Two columns of Wakosil-II 5 SIL-100 φ4.6×250 mm (produced by Wako Pure Chemical Industries, Ltd.) were connected to each other. An n-hexane:tetrahydrofuran:methanol (40:20:1) mixed solution was used as a mobile phase. A constant room temperature and a flow rate of 1.0 ml/min were used. The detection was performed at a wavelength of 470 nm. The feed or fish flesh was milled, and then the colorant was extracted with a tetrahydrofuran:methanol (20:1) mixed solution. The colorant was appropriately diluted with the mobile phase and analyzed by HPLC. 300 silver salmons (Oncorhynchus kisutch) each weighing about 200 g were cultivated as a test division of being fed with the above-described fermented product, and another 300 silver salmons each weighing about 200 g were cultivated as a test division of being fed with the above-described synthetic product. The salmons were fed in satiation in a marine fish pen for 6 months. After the 6 months of cultivating, 10 fish of each test division were weighed. […] The fish were immediately killed by cutting medulla and frozen for preservation. After being thawed, the fish flesh was milled by a coffee mill, and a part thereof was put into a polyethylene bag to measure the color tone thereof by a spectrometer CM-508i (Minolta). […] From a part of the milled fish flesh, the carotenoid colorant was extracted, and analyzed in terms of the content of each carotenoid compound by HPLC.
On to `CC1=C(/C=C/C(C)=C/C=C/C(C)=C/C=C/C=C(C)/C=C/C=C(C)/C=C/C2=C(C)C(=O)[C@@H](O)CC2(C)C)C(C)(C)CCC1` [3-hydroxyequinenone], for which the Ratio to astaxanthin is given as 0.2 or less %.

The data set is the same for the next values; noted with them: Fermented product division, silver salmon, 6 months, average of 10 fish.
`CC1=C(/C=C/C(C)=C/C=C/C(C)=C/C=C/C=C(C)/C=C/C=C(C)/C=C/C2=C(C)C(=O)[C@@H](O)CC2(C)C)C(C)(C)CCC1` [3-hydroxyequinenone]: the “Content in fish flesh” value is reported as 0.02 or less mg/kg.

Staying with this data set, now noted: Synthetic product division, silver salmon, 6 months, average of 10 fish.
With `CC1=C(/C=C/C(C)=C/C=C/C(C)=C/C=C/C=C(C)/C=C/C=C(C)/C=C/C2=C(C)C(=O)[C@@H](O)CC2(C)C)C(C)(C)CCC1` [3-hydroxyequinenone], the “Content in fish flesh” value was 0.02 or less mg/kg.

The next data set can be described thus: Carotenoid content in fish flesh of rainbow trout by HPLC. The conditions noted are these: Fermented product division, rainbow trout fish flesh, 3 months. Type of data set: in vivo, Oncorhynchus mykiss. The procedure: In the examples, the quantification of the carotenoid colorant was performed using high performance liquid chromatography (HPLC). Two columns of Wakosil-II 5 SIL-100 φ4.6×250 mm (produced by Wako Pure Chemical Industries, Ltd.) were connected to each other. An n-hexane:tetrahydrofuran:methanol (40:20:1) mixed solution was used as a mobile phase. A constant room temperature and a flow rate of 1.0 ml/min were used. The detection was performed at a wavelength of 470 nm. The feed or fish flesh was milled, and then the colorant was extracted with a tetrahydrofuran:methanol (20:1) mixed solution. The colorant was appropriately diluted with the mobile phase and analyzed by HPLC. 50 rainbow trouts (Oncorhynchus mykiss) each weighing about 100 g were cultivated in a water tank as a test division of being fed with the above-described fermented product, and another 50 rainbow trouts each weighing about 100 g were cultivated in a water tank as a test division of being fed with the above-described synthetic product. The trouts of each test division were fed in satiation in fresh water for 3 months. After the 3 months of cultivating, 12 fish of each test division were weighed. […] The fish were immediately killed by cutting medulla. […] After the measurement, the fish flesh was frozen for preservation. After being thawed, the fish flesh of the 12 fish of each test division was analyzed in terms of the content of each carotenoid compound.
Take `CC1=C(/C=C/C(C)=C/C=C/C(C)=C/C=C/C=C(C)/C=C/C=C(C)/C=C/C2=C(C)C(=O)[C@@H](O)CC2(C)C)C(C)(C)CCC1` [3-hydroxyequinenone]: the Ratio to astaxanthin is reported as 0.6 or less %.

The data set is the same for the next values; noted with them: Fermented product division, rainbow trout, 3 months, average of 12 fish.
As for `CC1=C(/C=C/C(C)=C/C=C/C(C)=C/C=C/C=C(C)/C=C/C=C(C)/C=C/C2=C(C)C(=O)[C@@H](O)CC2(C)C)C(C)(C)CCC1` [3-hydroxyequinenone], the “Content in fish flesh” value is reported as 0.02 or less mg/kg.

The same data set, now with this note: Synthetic product division, rainbow trout, 3 months, average of 12 fish.
As for `CC1=C(/C=C/C(C)=C/C=C/C(C)=C/C=C/C=C(C)/C=C/C=C(C)/C=C/C2=C(C)C(=O)[C@@H](O)CC2(C)C)C(C)(C)CCC1` [3-hydroxyequinenone], the “Content in fish flesh” value is reported as 0.02 or less mg/kg.

A further data set is described as follows: Carotenoid content in fish flesh of Atlantic salmon by HPLC. Type of data set: in vivo, Salmo salar. The conditions noted are these: Fermented product division, Atlantic salmon fish flesh, 12 months. The procedure: In the examples, the quantification of the carotenoid colorant was performed using high performance liquid chromatography (HPLC). Two columns of Wakosil-II 5 SIL-100 φ4.6×250 mm (produced by Wako Pure Chemical Industries, Ltd.) were connected to each other. An n-hexane:tetrahydrofuran:methanol (40:20:1) mixed solution was used as a mobile phase. A constant room temperature and a flow rate of 1.0 ml/min were used. The detection was performed at a wavelength of 470 nm. The feed or fish flesh was milled, and then the colorant was extracted with a tetrahydrofuran:methanol (20:1) mixed solution. The colorant was appropriately diluted with the mobile phase and analyzed by HPLC. 400 Atlantic salmons (Salmo salar) each weighing about 300 g were cultivated as a test division of being fed with the above-described fermented product, and another 400 Atlantic salmons each weighing about 300 g were cultivated as a test division of being fed with the above-described synthetic product. The salmons were fed in satiation in a marine fish pen for 12 months. After the 12 months of cultivating, 20 fish of each test division were landed and weighed. […] The fish were immediately killed by cutting medulla, and the fish flesh was measured in terms of the color tone by a spectrometer. […] After the measurement, the fish flesh was frozen for preservation for 1 month. After being thawed, the fish flesh of the 20 fish of each test division was analyzed in terms of the content of each carotenoid compound.
With `CC1=C(/C=C/C(C)=C/C=C/C(C)=C/C=C/C=C(C)/C=C/C=C(C)/C=C/C2=C(C)C(=O)[C@@H](O)CC2(C)C)C(C)(C)CCC1` [3-hydroxyequinenone], the Ratio to astaxanthin is 0.5 or less %.

Still in this data set, the particulars now being: Fermented product division, Atlantic salmon, 12 months, flesh frozen 1 month, average of 20 fish.
Take `CC1=C(/C=C/C(C)=C/C=C/C(C)=C/C=C/C=C(C)/C=C/C=C(C)/C=C/C2=C(C)C(=O)[C@@H](O)CC2(C)C)C(C)(C)CCC1` [3-hydroxyequinenone]: the “Content in fish flesh” value is reported as 0.02 or less mg/kg.

Still in this data set, the particulars now being: Synthetic product division, Atlantic salmon, 12 months, flesh frozen 1 month, average of 20 fish.
`CC1=C(/C=C/C(C)=C/C=C/C(C)=C/C=C/C=C(C)/C=C/C=C(C)/C=C/C2=C(C)C(=O)[C@@H](O)CC2(C)C)C(C)(C)CCC1` [3-hydroxyequinenone]: the “Content in fish flesh” value is given as 0.02 or less mg/kg.

The nature of a further data set: Carotenoid content in fish flesh of king salmon by HPLC. Type of data set: in vivo, Oncorhynchus tshawytscha. The conditions noted are these: Fermented product division, king salmon fish flesh, 3 months. Here is the method:
In the examples, the quantification of the carotenoid colorant was performed using high performance liquid chromatography (HPLC). Two columns of Wakosil-II 5 SIL-100 φ4.6×250 mm (produced by Wako Pure Chemical Industries, Ltd.) were connected to each other. An n-hexane:tetrahydrofuran:methanol (40:20:1) mixed solution was used as a mobile phase. A constant room temperature and a flow rate of 1.0 ml/min were used. The detection was performed at a wavelength of 470 nm. The feed or fish flesh was milled, and then the colorant was extracted with a tetrahydrofuran:methanol (20:1) mixed solution. The colorant was appropriately diluted with the mobile phase and analyzed by HPLC. 100 king salmons (Oncorhynchus tshawytscha) each weighing about 200 g were cultivated as a test division of being fed with the above-described fermented product, and another 100 king salmons each weighing about 200 g were cultivated as a test division of being fed with the above-described synthetic product. The salmons were fed in satiation in a marine fish pen for 3 months. After the 3 months of cultivating, 15 fish of each test division were sampled and weighed. […] The fish were immediately killed by cutting medulla. […] After the measurement, the fish flesh was frozen for preservation for 1 month. After being thawed, the fish flesh of the fish of each test division was analyzed in terms of the content of each carotenoid compound.
In the case of `CC1=C(/C=C/C(C)=C/C=C/C(C)=C/C=C/C=C(C)/C=C/C=C(C)/C=C/C2=C(C)C(=O)[C@@H](O)CC2(C)C)C(C)(C)CCC1` [3-hydroxyequinenone], the Ratio to astaxanthin is given as 0.5 or less %.

The data set is the same for the next values; noted with them: Fermented product division, king salmon, 3 months, flesh frozen 1 month, average of 15 fish.
As for `CC1=C(/C=C/C(C)=C/C=C/C(C)=C/C=C/C=C(C)/C=C/C=C(C)/C=C/C2=C(C)C(=O)[C@@H](O)CC2(C)C)C(C)(C)CCC1` [3-hydroxyequinenone], the “Content in fish flesh” value is listed as 0.02 or less mg/kg.

The same data set, now with this note: Synthetic product division, king salmon, 3 months, flesh frozen 1 month, average of 15 fish.
As to `CC1=C(/C=C/C(C)=C/C=C/C(C)=C/C=C/C=C(C)/C=C/C=C(C)/C=C/C2=C(C)C(=O)[C@@H](O)CC2(C)C)C(C)(C)CCC1` [3-hydroxyequinenone], the “Content in fish flesh” value is listed as 0.02 or less mg/kg.

(Values after patent US8999664B2, “Method of improving salmon meat color” (JX Nippon Oil & Energy Corporation, priority 2006, dated 2015).)
